A short description of this series: OMRI of rat after MCAO and reperfusion with injected TEMPOL. More on the design: species or system Wistar rat. The following applies: following ischemia/reperfusion in vivo, imaged with OMRI. The procedure: A 3D OMRI process can be performed using a variation of a balanced steady state free precession (b-SSFP) pulse sequence, for example, such as described in Sarracanie M et al. MRM 2013 DOI: 10.1002/mrm.24705. To achieve sensitivity of b-SSFP-based OMRI to free radical concentration, an NMR/ESR coil setup can be used. For one in vivo experiment, a single loop ESR coil 400 was arranged inside a solenoid NMR coil 402, as illustrate din FIG. 4. Under anesthesia, MCAO occlusion was performed in a 3 month old Wistar rat by insertion of filament via external carotid artery. Following 75 min MCAO and 60 min reperfusion, 3.6 μl/gbw of 300 μM TEMPOL was injected into the carotid artery after which the animal was sacrificed and OMRI imaging begun.
The OMRI enhancement image may be computed from a ratio of OMRI to MRI magnitude. […] The phase of the OMRI image in FIG. 6 provides sensitive contrast even in cases where the radical concentration is very low and the Overhauser enhancement may be small.

Results on 1 compound are retold here after patent US20170000377A1, “SYSTEM AND METHOD FOR IMAGING FREE RADICALS” (THE GENERAL HOSPITAL CORPORATION, priority 2014, published 2017).

The structures appear in SMILES notation.

As to `CC1(C)CC(O)CC(C)(C)N1[O]` [TEMPOL, 4-hydroxy-2,2,6,6-tetramethylpiperidin-1-oxyl], the “crossing the BBB” value was “crossing the BBB”.
